Measured values reported in patent US20050192349A1, “Isolation of the peroxisome proliferation-activated receptor-gamma (PPARgamma) ligand and methods of use thereof” (Beth Israel Deaconess Medical Center, Inc., priority 2002, published 2005).

What was measured:
[1] = test system: PPARγ ligand production in 5B2 cells; test: Effect of COX and LOX inhibitors on PPARγ ligand production in differentiating 5B2 cells (β-gal activity); assay type: cell-based, murine; settings: day 2
Source text: To test whether PPARγ ligand production was dependent upon cyclooxygenase (COX) or lipooxygenase (LOX), which would be expected if the ligand were a prostaglandin, the effect of COX and LOX inhibitors on PPARγ ligand production during 3T3-L1 differentiation into adipocytes was examined by measuring the β-gal activity in the stable cell line, 5B2.
5B2 cells were stimulated to differentiation into adipocytes as described above. The media containing the mixture of insulin, DEX and MIX is called d0 media on FIG. 10. In the experimental samples, d0 media contained the indicated COX or LOX inhibitor. The fold induction of β-gal activity of day 2 cells was compared to cells of day 2 stimulated in the absence of hormones (g media).

PPARγ = target: T1, PPARγ (Homo sapiens, UniProt P37231); settings: cited from earlier work
T1 sequence (P37231 1-505): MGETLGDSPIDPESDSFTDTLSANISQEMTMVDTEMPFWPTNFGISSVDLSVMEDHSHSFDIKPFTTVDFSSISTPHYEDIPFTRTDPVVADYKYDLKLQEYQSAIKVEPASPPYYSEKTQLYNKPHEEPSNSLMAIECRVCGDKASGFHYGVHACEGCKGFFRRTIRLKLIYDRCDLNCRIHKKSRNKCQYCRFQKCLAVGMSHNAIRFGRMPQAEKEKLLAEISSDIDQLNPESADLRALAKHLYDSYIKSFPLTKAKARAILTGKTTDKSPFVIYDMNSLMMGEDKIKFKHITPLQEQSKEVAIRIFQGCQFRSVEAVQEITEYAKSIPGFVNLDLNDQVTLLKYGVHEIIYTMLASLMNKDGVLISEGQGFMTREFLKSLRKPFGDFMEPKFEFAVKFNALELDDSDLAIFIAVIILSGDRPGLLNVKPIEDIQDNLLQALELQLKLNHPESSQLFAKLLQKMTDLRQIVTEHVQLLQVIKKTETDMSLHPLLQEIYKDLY

[2] = target: T2, PPARγ-LBD fused to GAL4-DBD (Mus musculus, UniProt P37238); test: β-gal activity in 3T3-L1 cell lines 5B2 and 5B3 stably transfected with the feedback monitoring system; assay type: cell-based, murine; set-up: expressed in transfected cells
T2 sequence (P37238 238-503 limits assumed): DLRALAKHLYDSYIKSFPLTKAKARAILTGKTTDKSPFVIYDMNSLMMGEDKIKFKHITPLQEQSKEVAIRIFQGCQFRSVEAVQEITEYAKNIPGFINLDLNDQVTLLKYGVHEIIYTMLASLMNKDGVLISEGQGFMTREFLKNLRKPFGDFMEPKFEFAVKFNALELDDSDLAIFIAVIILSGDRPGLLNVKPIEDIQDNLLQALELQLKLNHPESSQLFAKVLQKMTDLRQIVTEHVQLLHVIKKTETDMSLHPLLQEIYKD

[3] = target: T2, PPARγ-LBD fused to GAL4-DBD; test: PPARγ ligand monitoring system (Gal4-PPARγ-LBD / pUH-gal β-gal reporter) in transfected CV-1 cells; settings: 3T3-L1 stimulated 2 days with combinations of Ins, Mix and Dex
Procedure: The effector and reporter constructs were transfected into either CV-1 cells (monkey kidney cells) or 3T3-L1 cells (murine fibroblast cells capable of being differentiated into adipocytes). Cells were grown according to standard protocols for these cells. For example, 3T3-L1 cells were grown and maintained as fibroblasts in DMEM/high glucose, containing 10% calf serum in a 10% CO2 humidified environment at 37° C. The cells were maintained at a subconfluent level so as to not prematurely arrest cell growth and induce differentiation. The cells were typically split 1:5 or 1:3 every 3 to 4 days. Cells were transfected using Lipofectamine™ 2000 Reagent (Life Technologies™, Carlsbad, Calif.) according to the manufacturers instructions. Cells were plated in 24 well dishes for the assay.
The washed cells were lysed with 200 μl lysis buffer (25 mM glycylglycine, 15 mM MgSO4, 4 mM EGTA, 1 mM DTT, 1% Triton) per well. […] The β-gal activity was measured for 10 sec. in a Luminometer (LB9507, EG&G, Bad Wildbad, Germany).
CV-1 cells were transfected as described above with pUH-G4-PPARγ and pUH-gal, with or without nuclear receptor interaction domain NBD1 of SRC-1 fused with VP16 or inactivated VP16. […] The treated, transfected cells were harvested and β-gal activity measured 48 hrs post-transfection.

3T3-L1 = settings: cited from earlier work
PPARγ1 = test: Full-length PPARγ1 / p3DR1-luc luciferase reporter in CV-1 cells stimulated with conditioned media; assay type: cell-based; settings: CV-1, pCMV-PPARγ and p3DR1-luc, with or without NBD1-VP16; various concentrations
Procedure: CV-1 cells were transfected with an expression vector encoding full-length PPARγ1 (pCMV-PPARγ) and a reporter plasmid p3DR1-1uc. p3DR1-luc contains a triple copy of PPARγ response element, Direct Repeat 1, linked to the luciferase gene. The cells were transfected with the reporter with or without NBD1-VP16 expression vector. The transfected cells were incubated with or without conditioned media in the absence or presence of various concentrations of PD068235. The cells were washed and lysed as described above for the β-gal assay, except that 50 μl of the lysate were mixed with 100 μl assay buffer and measured for 15 sec. in the Luminometer. Assay buffer consisted of 25 mM glycylglycine, 15 mM MgSO4, 4 mM EGTA, 1 mM DTT, 15 mM KH2PO4, 6 mM ATP and 100 μl of a 0.225 mg/ml luciferin stock solution.

[4] = cited from earlier work; for LDL levels: human, in vivo

CCCCCC(O)c1ccc(OCc2ccc3ccccc3n2)cc1 (single isomer, unassigned) [REV 5901-para-isomer]
effect on β-gal activity produced by stimulated 5B2 cells ([1]; 5 μM in d0 media): no significant effect

CCCCC/C=C/C=C1/C(=O)C=C[C@@H]1C/C=C\CCCC(=O)O [15-deoxyΔ^12,14PG J2]
Kd (PPARγ; read-out: affinity (dissociation constant) of PPARγ for the ligand): 2 to 50 µM

O=c1cc(-c2ccccc2)oc2cc(O)c(O)c(O)c12 [Baicalein]
effect on β-gal activity produced by stimulated 5B2 cells ([1]; 5 μM in d0 media): no significant effect

COc1ccc2c(c1)c(CC(=O)O)c(C)n2C(=O)c1ccc(Cl)cc1 [Indomethacin]
effect on β-gal activity produced by stimulated 5B2 cells ([1]; 10 μM in d0 media): no significant effect

CC(C)c1ccc2c(c1)c(SC(C)(C)C)c(CC(C)(C)C(=O)O)n2Cc1ccc(Cl)cc1 [MK866]
effect on β-gal activity produced by stimulated 5B2 cells ([1]; 5 μM in d0 media): no significant effect

CC(C)Cn1c(=O)n(C)c(=O)c2[nH]cnc21 [Mix, methyl iso-butyl xanthine]
induction of β-gal activity by components of the adipogenic mixture ([2]; 5B2 and 5B3, combinations of Ins, 0.5 mM Mix, Dex, day 2): dependent on the stimulation by Mix
ligand production (β-gal activity) on stimulation with cAMP elevating compounds ([2]; 5B2 cells): induced the ligand production of differentiating pre-adipocytes by increasing the intracellular cAMP
ligand production of 3T3-L1 cells (β-gal activity of CV-1 cells incubated with conditioned media) [3]: dependent on stimulation by Mix

CC(Cc1ccc(O)c(O)c1)C(C)Cc1ccc(O)c(O)c1 (stereo not drawn) [NDGA]
effect on β-gal activity produced by stimulated 5B2 cells ([1]; 10 μM in d0 media): no significant effect

C=CCn1cc([N+](=O)[O-])sc1=NC(=O)C(C)(C)C [PD068235]
3T3-L1 adipocyte differentiation (3T3-L1): prevent 3T3-L1 adipocyte differentiation
inhibition of CM-stimulated PPARγ transcriptional activity (luciferase) (PPARγ1): dose-dependent inhibition of CM-stimulated PPARγ transcriptional activity

Cc1c(C)c2c(c(C)c1O)CCC(C)(COc1ccc(CC3SC(=O)NC3=O)cc1)O2 (stereo not drawn) [Troglitazone]
LDL levels [4]: associated with a rise in LDL levels
liver toxicity ([4]; patients): liver toxicity in some patients

CCCCC/C=C\C/C=C\CCCCCCCC(=O)O [linoleic acid]
direct binding to PPARγ (PPARγ): bind directly to PPARγ

CN(CCOc1ccc(CC2SC(=O)NC2=O)cc1)c1ccccn1 (stereo not drawn) [rosiglitazone]
LDL levels [4]: associated with a rise in LDL levels
